# Experimental data published in patent publication US9226907B2 (priority 2008, dated 2016).
# Columns and labels:
# [1] = clinical; conditions: in vivo
# From the text: Hydrocodone is structurally similar to other opioid analgesics (hydromorphone and oxycodone).
# [2] = in vivo
# [3] = higher drug concentrations associated with overdosage (280 μg/mL); cited from earlier work
compound,measurement,setting,value
"CC(=O)Nc1ccc(O)cc1 [acetaminophen, 4′-hydroxyacetanilide]",Effect of food on Cmax or AUC,[1]; human,no effect on Cmax or AUC
same,Time by which steady state was achieved,[1]; human,≤ 24 h
same,Vd,[1]; human,78 to 245 L
same,Cmax and AUC versus dose,[1],proportional to dose
same,Variability in exposures (Cmax and AUC),[2]; human,not affected by ethanol coadministration
same,AUC with different ethanol concentrations versus 0% ethanol,[2],equivalent to that of Vicodin CR alone
same,Bound to plasma proteins,[3],15-21%
